In article PMC11423540, “Synthesis and biological evaluation of ortho-phenyl phenylhydroxamic acids containing phenothiazine with improved selectivity for class IIa histone deacetylases” (Journal of Enzyme Inhibition and Medicinal Chemistry, 2024):

Assays:
HDAC4 = HDAC4 (Homo sapiens, UniProt P56524); test: HDAC inhibition assay, HDAC4
SCC2095 cells = test: ROS determination by flow cytometry (DCFH-DA probe); type: cell-based, human; conditions: SCC2095, 12 h or 24 h
Method: Cells (2 × 10^5) were treated with tested compounds in 6-well plates for 24 h or 48 h, then washed with ice-cold PBS twice and harvested with trypsin. Cells were incubated with 5 µL Annexin V- FITC/PI (BD Pharmingen, San Diego) for 15 min in the dark condition. Then, the cells were measured by BD FACSCanto flow cytometer (BD, Franklin Lakes, NJ). For ROS determination, DMSO or H2O2 or compound 7 g-treated cells were stained with the ROS probe (DCFH-DA; 5 µM) and detected the DCFH-DA fluorescence.

Sequence of HDAC4 (P56524 whole entry): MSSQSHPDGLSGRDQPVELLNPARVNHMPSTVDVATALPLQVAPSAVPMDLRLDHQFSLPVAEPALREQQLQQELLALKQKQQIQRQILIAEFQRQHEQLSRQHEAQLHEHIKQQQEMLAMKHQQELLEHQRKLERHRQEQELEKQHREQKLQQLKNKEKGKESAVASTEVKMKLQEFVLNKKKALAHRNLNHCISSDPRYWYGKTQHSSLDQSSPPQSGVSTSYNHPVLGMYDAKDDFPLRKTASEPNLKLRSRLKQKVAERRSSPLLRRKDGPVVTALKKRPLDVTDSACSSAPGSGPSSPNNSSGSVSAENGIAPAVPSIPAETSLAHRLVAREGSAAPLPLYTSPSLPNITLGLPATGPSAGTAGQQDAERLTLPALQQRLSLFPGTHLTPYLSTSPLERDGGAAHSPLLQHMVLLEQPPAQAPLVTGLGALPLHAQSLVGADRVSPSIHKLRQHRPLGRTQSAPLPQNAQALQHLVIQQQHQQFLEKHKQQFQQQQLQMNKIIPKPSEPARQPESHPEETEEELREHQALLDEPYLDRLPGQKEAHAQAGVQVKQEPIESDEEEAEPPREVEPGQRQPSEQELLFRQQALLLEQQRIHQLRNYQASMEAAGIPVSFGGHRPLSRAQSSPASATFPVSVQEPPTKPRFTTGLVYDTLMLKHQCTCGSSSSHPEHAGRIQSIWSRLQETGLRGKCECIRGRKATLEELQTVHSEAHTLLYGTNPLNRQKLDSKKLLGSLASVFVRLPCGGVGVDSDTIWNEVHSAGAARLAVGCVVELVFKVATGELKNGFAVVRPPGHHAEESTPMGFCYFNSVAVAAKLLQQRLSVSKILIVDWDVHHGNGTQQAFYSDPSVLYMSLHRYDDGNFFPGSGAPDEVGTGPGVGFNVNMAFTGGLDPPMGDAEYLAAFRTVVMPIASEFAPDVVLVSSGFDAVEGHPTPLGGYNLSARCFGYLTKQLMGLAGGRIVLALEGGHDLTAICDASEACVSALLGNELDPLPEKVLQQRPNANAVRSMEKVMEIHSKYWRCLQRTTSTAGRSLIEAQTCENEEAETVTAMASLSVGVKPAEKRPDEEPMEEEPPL

IC50 (HDAC4): 180 ± 60 nM
Compound: NC(=NO)c1ccc2c(c1)N(Cc1ccc(C(=O)NO)c(-c3ccccc3)c1)c1ccccc1S2 [Compound 7g, N-Hydroxy-4-[2-(N’-hydroxycarbamimidoyl)-10H-phenothiazin-10-yl]methyl-2-phenylbenzamide]
ROS generation (SCC2095 cells): increased
